Molecules are shown by their SMILES. Read-outs that look alike come from different tables or passages of the source.

One test concerns the target human Gal-3 (hGal-3) (Homo sapiens (Human), UniProt P17931). The test is described as follows: competitive binding assay: biotinylated hGal-3 binding to microplate-adsorbed asialofetuin (ASF). In outline:
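Serial DMSO dilutions of each compound; binding incubation of 3 hours at 4 °C with cold-buffer washes; detection using 80 ng/mL streptavidin-peroxidase for 1 hour, then ABTS. Multiple determinations were averaged to give the IC50.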

For another test, the target named is human Gal-1 (hGal-1) (Homo sapiens (Human), UniProt P09382). Briefly: competitive binding assay: biotinylated hGal-1 binding to microplate-adsorbed asialofetuin (ASF). As to conditions: Table 15; read-out: IC50 (Galectin-1 inhibition). A digest of the protocol:
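Spectrophotometric competition readout: after compound and biotinylated hGal-1 (300-1000 ng/mL) sit 3 h at 4° C on adsorbed asialofetuin, streptavidin-peroxidase (1 h, 4° C) and ABTS reveal residual binding. Reported IC50 values are means of repeat runs.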

Setting [1] is: Table 5, read-out: IC50 (Gal-3 inhibition).
Where [2] appears, read: Table 10, 2-OMe-Gal inhibitors, read-out: IC50 (Gal-3 inhibition).
[3] abbreviates: Gal-3 inhibition, binding of biotinylated hGal-3 to ASF, mean values, read-out: IC50.
[4] abbreviates: Table 9, 2-OMe-Gal inhibitors, read-out: IC50 (Gal-3 inhibition).

human Gal-3 (hGal-3), sequence (P17931 whole entry): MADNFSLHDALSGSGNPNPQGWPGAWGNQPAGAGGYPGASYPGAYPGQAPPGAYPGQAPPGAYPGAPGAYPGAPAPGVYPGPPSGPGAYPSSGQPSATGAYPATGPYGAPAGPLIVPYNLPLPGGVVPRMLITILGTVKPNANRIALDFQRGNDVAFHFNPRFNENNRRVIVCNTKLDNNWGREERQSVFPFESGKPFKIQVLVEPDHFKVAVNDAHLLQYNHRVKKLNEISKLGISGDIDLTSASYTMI
human Gal-1 (hGal-1), sequence (P09382 whole entry): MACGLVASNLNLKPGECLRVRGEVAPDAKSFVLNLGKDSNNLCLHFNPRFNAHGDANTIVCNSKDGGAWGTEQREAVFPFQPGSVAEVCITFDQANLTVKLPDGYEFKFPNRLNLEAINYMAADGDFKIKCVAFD

For `Cc1ccccc1[C@H](S[C@@H]1O[C@H](CO)[C@H](O)[C@H](n2cc(-c3cc(F)c(F)c(F)c3)nn2)[C@H]1O)C1(O)CCCCC1` [Example 2.39.102S., (2S,3R,4S,5R,6R)-2-(((S)-(1-Hydroxycyclohexyl)(o-tolyl)methyl)thio)-6-(hydroxymethyl)-4-(4-(3,4,5-trifluorophenyl)-1H-1,2,3-triazol-1-yl)tetrahydro-2H-pyran-3,5-diol], the IC50 (as a rule, the concentration needed to halve the response being measured) at human Gal-3 (hGal-3) (setting [1]) is 4540 nM; at human Gal-1 (hGal-1), 24000 nM.

For `CO[C@@H]1[C@@H](n2cc(-c3cc(F)c(F)c(F)c3)nn2)[C@@H](O)[C@@H](CO)O[C@H]1S[C@@H](c1nocc1C)C1(O)CCCCC1` [Example 2.39.120S.I., (2R,3R,4S,5R,6S)-6-(((S)-(1-Hydroxycyclohexyl)(4-methylisoxazol-3-yl)methyl)thio)-2-(hydroxymethyl)-5-methoxy-4-(4-(3,4,5-trifluorophenyl)-1H-1,2,3-triazol-1-yl)tetrahydro-2H-pyran-3-ol], the IC50 on human Gal-3 (hGal-3) (setting [2]) turned out to be 12500 nM; at human Gal-1 (hGal-1), 27300 nM.

With `Cc1nc(C)c([C@H](S[C@@H]2O[C@H](CO)[C@H](O)[C@H](n3cc(-c4cc(F)c(F)c(F)c4)nn3)[C@H]2O)C2(O)CCOCC2)nc1C` [Example 2.41.119S., (2R,3R,4S,5R,6S)-2-(Hydroxymethyl)-6-(((S)-(4-hydroxytetrahydro-2H-pyran-4-yl)(3,5,6-trimethylpyrazin-2-yl)methyl)thio)-4-(4-(3,4,5-trifluorophenyl)-1H-1,2,3-triazol-1-yl)tetrahydro-2H-pyran-3,5-diol], the IC50 came to 2990 nM at human Gal-3 (hGal-3) (setting [1]) and 19900 nM at human Gal-1 (hGal-1).

Regarding `Cc1ccccc1C(O)C(S[C@@H]1O[C@H](CO)[C@H](O)[C@H](n2cc(-c3cc(F)c(F)c(F)c3)nn2)[C@H]1O)c1ccccc1C(F)(F)F` (stereo partly drawn) [Example 2.62.112., (2S,3R,4S,5R,6R)-2-((2-Hydroxy-2-(o-tolyl)-1-(2-(trifluoromethyl)phenyl)ethyl)thio)-6-(hydroxymethyl)-4-(4-(3,4,5-trifluorophenyl)-1H-1,2,3-triazol-1-yl)tetrahydro-2H-pyran-3,5-diol], the IC50 was 1220 nM on human Gal-3 (hGal-3) (setting [3]) and 11700 nM on human Gal-1 (hGal-1).

For `CO[C@@H]1[C@@H](n2cc(-c3cc(F)c(F)c(F)c3)nn2)[C@@H](O)[C@@H](CO)O[C@H]1S[C@@H](c1c(C)cnn1C)C1(O)CCC(F)(F)CC1` [Example 2.44.136S.I., (2R,3R,4S,5R,6S)-6-(((S)-(4,4-Difluoro-1-hydroxycyclohexyl)(1,4-dimethyl-1H-pyrazol-5-yl)methyl)thio)-2-(hydroxymethyl)-5-methoxy-4-(4-(3,4,5-trifluorophenyl)-1H-1,2,3-triazol-1-yl)tetrahydro-2H-pyran-3-ol], the results for the IC50 on human Gal-3 (hGal-3) (setting [2]) and at human Gal-1 (hGal-1) were 15600 nM and more than 100000 nM, respectively.

Regarding `CCn1nnc(C)c1[C@H](S[C@@H]1O[C@H](CO)[C@H](O)[C@H](n2cc(-c3cc(F)c(F)c(F)c3)nn2)[C@H]1OC)C1(O)CCC(F)(F)CC1` [Example 2.44.138S.I., (2R,3R,4S,5R,6S)-6-(((S)-(4,4-Difluoro-1-hydroxycyclohexyl)(1-ethyl-4-methyl-1H-1,2,3-triazol-5-yl)methyl)thio)-2-(hydroxymethyl)-5-methoxy-4-(4-(3,4,5-trifluorophenyl)-1H-1,2,3-triazol-1-yl)tetrahydro-2H-pyran-3-ol], the figures for the IC50 at human Gal-3 (hGal-3) (setting [2]) and on human Gal-1 (hGal-1) were 13200 nM and more than 100000 nM, respectively.

`CO[C@@H]1[C@@H](n2cc(-c3cc(F)c(F)c(F)c3)nn2)[C@@H](O)[C@@H](CO)O[C@H]1S[C@H](c1ncccc1Cl)C1(O)CCC(F)(F)CC1` [Example 2.44.137R.I., (2R,3R,4S,5R,6S)-6-(((R)-(3-Chloropyridin-2-yl)(4,4-difluoro-1-hydroxycyclohexyl)methyl)thio)-2-(hydroxymethyl)-5-methoxy-4-(4-(3,4,5-trifluorophenyl)-1H-1,2,3-triazol-1-yl)tetrahydro-2H-pyran-3-ol]: the IC50 at human Gal-3 (hGal-3) (setting [4]) was 70 nM; on human Gal-1 (hGal-1) it was 720 nM.

As for `CC(=O)N1CCC(O)(C(S[C@@H]2O[C@H](CO)[C@H](O)[C@H](n3cc(-c4cc(F)c(F)c(F)c4)nn3)[C@H]2O)c2ccccc2C(F)(F)F)CC1` (stereo partly drawn) [Example 2.48.112., 1-(4-((((2S,3R,4S,5R,6R)-3,5-Dihydroxy-6-(hydroxymethyl)-4-(4-(3,4,5-trifluorophenyl)-1H-1,2,3-triazol-1-yl)tetrahydro-2H-pyran-2-yl)thio)(2-(trifluoromethyl)phenyl)methyl)-4-hydroxypiperidin-1-yl)ethan-1-one], the IC50 turned out to be 220 nM on human Gal-3 (hGal-3) (setting [3]) and 750 nM on human Gal-1 (hGal-1).

Turning to `Cc1ccnnc1C(S[C@@H]1O[C@H](CO)[C@H](O)[C@H](n2cc(-c3cc(F)c(F)c(F)c3)nn2)[C@H]1O)C1(O)CCC(F)(F)CC1` (stereo partly drawn) [Example 2.44.135., (2S,3R,4S,5R,6R)-2-(((4,4-Difluoro-1-hydroxycyclohexyl)(4-methylpyridazin-3-yl)methyl)thio)-6-(hydroxymethyl)-4-(4-(3,4,5-trifluorophenyl)-1H-1,2,3-triazol-1-yl)tetrahydro-2H-pyran-3,5-diol], the figures for the IC50 at human Gal-3 (hGal-3) (setting [3]) and on human Gal-1 (hGal-1) were 70 nM and 450 nM, respectively.

On to `CO[C@@H]1[C@@H](n2cc(-c3cc(F)c(F)c(F)c3)nn2)[C@@H](O)[C@@H](CO)O[C@H]1S[C@H](c1ncccc1C(F)(F)F)C1(O)CCC(F)(F)CC1` [Example 2.44.125R.I., (2R,3R,4S,5R,6S)-6-(((R)-(4,4-Difluoro-1-hydroxycyclohexyl)(3-(trifluoromethyl)pyridin-2-yl)methyl)thio)-2-(hydroxymethyl)-5-methoxy-4-(4-(3,4,5-trifluorophenyl)-1H-1,2,3-triazol-1-yl)tetrahydro-2H-pyran-3-ol], for which the IC50 at human Gal-3 (hGal-3) (setting [4]) is 60 nM; on human Gal-1 (hGal-1), 260 nM.

With `Cc1nc(C)c(C(S[C@@H]2O[C@H](CO)[C@H](O)[C@H](n3cc(-c4cc(F)c(F)c(F)c4)nn3)[C@H]2O)C2(O)CCN(C)CC2)nc1C` (stereo partly drawn) [Example 2.40.119., (2S,3R,4S,5R,6R)-2-(((4-Hydroxy-1-methylpiperidin-4-yl)(3,5,6-trimethylpyrazin-2-yl)methyl)thio)-6-(hydroxymethyl)-4-(4-(3,4,5-trifluorophenyl)-1H-1,2,3-triazol-1-yl)tetrahydro-2H-pyran-3,5-diol], the IC50 is 100 nM at human Gal-3 (hGal-3) (setting [3]) and 270 nM at human Gal-1 (hGal-1).

As for `CC(C)(O)C(S[C@@H]1O[C@H](CO)[C@H](O)[C@H](n2cc(-c3cc(F)c(F)c(F)c3)nn2)[C@H]1O)c1ccccc1CCO` (stereo partly drawn) [Example 2.31.108., (2S,3R,4S,5R,6R)-2-((2-Hydroxy-1-(2-(2-hydroxyethyl)phenyl)-2-methylpropyl)thio)-6-(hydroxymethyl)-4-(4-(3,4,5-trifluorophenyl)-1H-1,2,3-triazol-1-yl)tetrahydro-2H-pyran-3,5-diol], the results for the IC50 at human Gal-3 (hGal-3) (setting [3]) and on human Gal-1 (hGal-1) were 380 nM and 21200 nM, respectively.

As for `OC[C@H]1O[C@@H](SC(c2ccccc2C(F)(F)F)C2(O)CCNCC2)[C@H](O)[C@@H](n2cc(-c3cc(F)c(F)c(F)c3)nn2)[C@H]1O` (stereo partly drawn) [Example 2.45.112., (2R,3R,4S,5R,6S)-2-(Hydroxymethyl)-6-(((4-hydroxypiperidin-4-yl)(2-(trifluoromethyl)phenyl)methyl)thio)-4-(4-(3,4,5-trifluorophenyl)-1H-1,2,3-triazol-1-yl)tetrahydro-2H-pyran-3,5-diol], the figures for the IC50 on human Gal-3 (hGal-3) (setting [3]) and on human Gal-1 (hGal-1) were 130 nM and 460 nM, respectively.

For `CC(C)Cc1ccccc1C(S[C@@H]1O[C@H](CO)[C@H](O)[C@H](n2cc(-c3cc(F)c(F)c(F)c3)nn2)[C@H]1O)C(C)(C)O` (stereo partly drawn) [Example 2.31.107., (2S,3R,4S,5R,6R)-2-((2-Hydroxy-1-(2-isobutylphenyl)-2-methylpropyl)thio)-6-(hydroxymethyl)-4-(4-(3,4,5-trifluorophenyl)-1H-1,2,3-triazol-1-yl)tetrahydro-2H-pyran-3,5-diol], the IC50 was found to be 260 nM at human Gal-3 (hGal-3) (setting [3]) and 240 nM at human Gal-1 (hGal-1).

Regarding `OC[C@H]1O[C@@H](S[C@H](c2nccnc2Cl)C2(O)CCC(F)(F)CC2)[C@H](O)[C@@H](n2cc(-c3cc(F)c(F)c(F)c3)nn2)[C@H]1O` [Example 2.44.133R., (2S,3R,4S,5R,6R)-2-(((R)-(3-Chloropyrazin-2-yl)(4,4-difluoro-1-hydroxycyclohexyl)methyl)thio)-6-(hydroxymethyl)-4-(4-(3,4,5-trifluorophenyl)-1H-1,2,3-triazol-1-yl)tetrahydro-2H-pyran-3,5-diol], the results for the IC50 at human Gal-3 (hGal-3) (setting [3]) and on human Gal-1 (hGal-1) were 20 nM and 160 nM, respectively.

Take `Cc1ccccc1[C@@H](S[C@@H]1O[C@H](CO)[C@H](O)[C@H](n2cc(-c3cc(F)c(F)c(F)c3)nn2)[C@H]1O)C1(O)CCOCC1` [Example 2.41.102R.]: the figures for the IC50 on human Gal-3 (hGal-3) (setting [1]) and at human Gal-1 (hGal-1) were 40 nM and 210 nM, respectively.

Regarding `O=C(NC1CC1)N1CCC(O)([C@H](S[C@@H]2O[C@H](CO)[C@H](O)[C@H](n3cc(-c4cc(F)c(F)c(F)c4)nn3)[C@H]2O)c2ccccc2C(F)(F)F)CC1` [Example 2.49.112R., N-Cyclopropyl-4-((R)-(((2S,3R,4S,5R,6R)-3,5-dihydroxy-6-(hydroxymethyl)-4-(4-(3,4,5-trifluorophenyl)-1H-1,2,3-triazol-1-yl)tetrahydro-2H-pyran-2-yl)thio)(2-(trifluoromethyl)phenyl)methyl)-4-hydroxypiperidine-1-carboxamide], the IC50 came out at 50 nM on human Gal-3 (hGal-3) (setting [3]) and 160 nM on human Gal-1 (hGal-1).

Regarding `CCc1ccccc1C(S[C@@H]1O[C@H](CO)[C@H](O)[C@H](n2cc(-c3cc(F)c(F)c(F)c3)nn2)[C@H]1O)C(C)(C)O` (stereo partly drawn) [Example 2.31.103., (2S,3R,4S,5R,6R)-2-((1-(2-Ethylphenyl)-2-hydroxy-2-methylpropyl)thio)-6-(hydroxymethyl)-4-(4-(3,4,5-trifluorophenyl)-1H-1,2,3-triazol-1-yl)tetrahydro-2H-pyran-3,5-diol], the IC50 at human Gal-3 (hGal-3) (setting [3]) stood at 300 nM; at human Gal-1 (hGal-1), 1230 nM.

The record behind these values is patent publication US12404295B2, “(Hetero)aryl-methyl-thio-beta-D-galactopyranoside derivatives” (Idorsia Pharmaceuticals Ltd, priority 2019, dated 2025).
